Measurements published in US9000002B2, “N1-substituted-5-fluoro-2-oxopyrimidinone-1(2H)-carboxamide derivatives” (Dow Agrosciences LLC, priority 2009, dated 2015).
Read-outs that look alike come from different tables or passages of the source.

Assays:
[1] = system: Mycosphaerella graminicola; Anamorph: Septoria tritici; Bayer Code SEPTTR; assay: Evaluation of fungicidal activity: leaf blotch of wheat (SEPTTR), wheat plants variety Yuma; type: in vivo; settings: Zymoseptoria tritici, 100 ppm, wheat plants, percent control vs untreated inoculated plants
Experimental: Evaluation of Fungicidal Activity: Leaf Blotch of Wheat (Mycosphaerella graminicola; Anamorph: Septoria tritici; Bayer Code […]) Wheat plants (variety Yuma) were grown from seed in a greenhouse in 50% mineral soil/50% soil-less Metro mix until the first leaf was fully emerged, with 7-10 seedlings per pot. These plants were inoculated with an aqueous spore suspension of Septoria tritici either prior to or after fungicide treatments. After inoculation the plants were kept in 100% relative humidity (one day in a dark dew chamber followed by two to three days in a lighted dew chamber) to permit spores to germinate and infect the leaf. The plants were then transferred to a greenhouse for disease to develop. The following table presents the activity of typical compounds of the present disclosure when evaluated in these experiments. The effectiveness of the test compounds in controlling disease was determined by assessing the severity of disease on treated plants, then converting the severity to percent control based on the level of disease on untreated, inoculated plants. • In each case of Table II the rating scale is as follows: […]

[2] = 24 h, One-Day Protectant (1DP), read-out: SEPTTR 100 PPM 1DP (% Disease Control rating)
[3] = 72 h, Three-Day Curative (3DC), read-out: SEPTTR 100 PPM 3DC (% Disease Control rating)

Structure (SMILES) | melting point | pest or weed control at 100 ppm [1, 2] | pest or weed control at 100 ppm [1, 3]
CCCNC(=O)n1cc(F)c(NC(C)=O)nc1=O [Compound 39] | 233 to 235 °C | 76 to 100% | 76 to 100%
CN(C(=S)n1cc(F)c(N)nc1=O)c1cccc(C(F)(F)F)c1 [Compound 35] | 126 to 131 °C | 76 to 100% | 76 to 100%
CCCNC(=O)n1cc(F)c(NC(=O)Cc2ccc(OC)cc2)nc1=O [Compound 43] | 227 to 229 °C | 76 to 100% | 76 to 100%
Nc1nc(=O)n(C(=O)Nc2ccccc2Cl)cc1F [Compound 8] | 258 to 261 °C | 76 to 100% | 76 to 100%
Nc1nc(=O)n(C(=O)NCc2ccccc2F)cc1F [Compound 22] | 260 to 262 °C | 76 to 100% | 76 to 100%
Nc1nc(=O)n(C(=O)NC2CCCC2)cc1F [Compound 5, 4-amino-N-cyclopentyl-5-fluoro-2-oxopyrimidine-1(2H)-carboxamide] | 294 to 297 °C | 76 to 100% | 76 to 100%
CCCNC(=O)n1cc(F)c(NC(=O)c2ccccc2Cl)nc1=O [Compound 42] | 239 to 241 °C | 26 to 50% | 76 to 100%
CCCNC(=O)n1cc(F)c(/N=C/N(C)C)nc1=O [Compound 1, 4-(dimethylamino-methyleneamino)-5-fluoro-2-oxo-2H-pyrimidine-1-carboxylic acid propylamide] | 266 to 268 °C | 76 to 100% | 76 to 100%
Cc1ccc(NC(=O)n2cc(F)c(NCc3ccccc3F)nc2=O)cc1 [Compound 30] | 158 to 162 °C | 0 to 25% | 26 to 50%
Cc1ccc(NC(=O)n2cc(F)c(N)nc2=O)cc1 [Compound 15] | 257 to 260 °C | 76 to 100% | 76 to 100%
CCNC(=O)n1cc(F)c(NC(=O)C(C)C)nc1=O [Compound 45] | 226 to 228 °C | 76 to 100% | 76 to 100%

Now from value to compound, other results behind:

melting point | Structure (SMILES) | pest or weed control at 100 ppm [1, 2] | pest or weed control at 100 ppm [1, 3]
237 to 239 °C | CSCCNC(=O)n1cc(F)c(N)nc1=O [Compound 26] | 76 to 100% | 76 to 100%
277 to 280 °C (dec.) | COc1ccccc1NC(=O)n1cc(F)c(N)nc1=O [Compound 7] | 76 to 100% | 76 to 100%
295 to 298 °C | COCCCNC(=O)n1cc(F)c(N)nc1=O [Compound 27] | 76 to 100% | 76 to 100%
233 to 235 °C | CCNC(=O)n1cc(F)c(NC(C)=O)nc1=O [Compound 38, 4-acetamido-N-ethyl-5-fluoro-2-oxopyrimidine-1(2H)-carboxamide] | 76 to 100% | 76 to 100%
242 to 244 °C | COc1cccc(NC(=O)n2cc(F)c(N)nc2=O)c1 [Compound 16] | 76 to 100% | 76 to 100%
248 to 250 °C | CCCCCNC(=O)n1cc(F)c(NC(=O)NCc2ccccc2OC)nc1=O [Compound 52] | 0 to 25% | 0 to 25%
232 to 236 °C | CCOC(=O)CCNC(=O)n1cc(F)c(/N=C/N(C)C)nc1=O [Compound 2] | 76 to 100% | 76 to 100%
252 to 255 °C | COc1ccc(NC(=O)n2cc(F)c(N)nc2=O)cc1 [Compound 10] | 76 to 100% | 76 to 100%
